# Assay results taken from ChEMBL document CHEMBL3885881, “DrugMatrix”.
# Species: Rattus norvegicus
# Assay: DrugMatrix - Regimen: Daily Repeat
# Assay type: toxicity, organism-based, Sprague-Dawley
# Design: regimen Daily Repeat, gender Male, age 6-8 weeks
# Settings: in vivo, po, route oral GAVAGE, vehicle .5 % CMC; for ABSOLUTE BASOPHIL / ABSOLUTE EOSINOPHIL / ABSOLUTE LYMPHOCYTE / ABSOLUTE MONOCYTE / ABSOLUTE SEGMENTED NEUTROPHIL / BASOPHIL / EOSINOPHIL / ERYTHROCYTE COUNT / HEMATOCRIT / HEMOGLOBIN / LEUKOCYTE COUNT / LYMPHOCYTE / MEAN CORPUSCULAR HEMOGLOBIN / MEAN CORPUSCULAR HEMOGLOBIN CONCENTRATION / MEAN CORPUSCULAR VOLUME / MONOCYTE / NEUTROPHIL / NUCLEATED RED BLOOD CELLS / PLATELET COUNT: tissue Blood; for ALANINE AMINOTRANSFERASE / ALBUMIN / ALKALINE PHOSPHATASE / ASPARTATE AMINOTRANSFERASE / BLOOD UREA NITROGEN / CARBON DIOXIDE / CHLORIDE / CHOLESTEROL / CREATINE PHOSPHOKINASE / CREATININE / GLUCOSE / LACTATE DEHYDROGENASE / LIPASE / PHOSPHORUS / POTASSIUM / SODIUM / TOTAL BILIRUBIN / TOTAL PROTEIN / URIC ACID: tissue Plasma
# [1] = 0 mg/kg, 72 h, dose level Control, time 3 day
# [2] = 0 mg/kg, 120 h, dose level Control, time 5 day
# [3] = 19 mg/kg, 72 h, dose level High, time 3 day
smiles,measurement,setting,value
NCC(CC(=O)O)c1ccc(Cl)cc1 (centres undefined) [BACLOFEN],ABSOLUTE BASOPHIL,[1],0 CELLS/uL
same,ABSOLUTE EOSINOPHIL,[1],171.33 CELLS/uL
same,ABSOLUTE LYMPHOCYTE,[1],13776.5 CELLS/uL
same,ABSOLUTE MONOCYTE,[1],180.83 CELLS/uL
same,ABSOLUTE SEGMENTED NEUTROPHIL,[1],1121.33 CELLS/uL
same,BASOPHIL,[1],0%
same,EOSINOPHIL,[1],1%
same,ERYTHROCYTE COUNT,[1],5.56 x10E6/uL
same,HEMATOCRIT,[1],34.75%
same,HEMOGLOBIN,[1],13.68 G/DL
same,LEUKOCYTE COUNT,[1],15.25 x10E3/uL
same,LYMPHOCYTE,[1],90.17%
same,MEAN CORPUSCULAR HEMOGLOBIN,[1],24.6 pg
same,MEAN CORPUSCULAR HEMOGLOBIN CONCENTRATION,[1],39.4 G/DL
same,MEAN CORPUSCULAR VOLUME,[1],62.48 fL
same,MONOCYTE,[1],1.17%
same,NEUTROPHIL,[1],7.67%
same,NUCLEATED RED BLOOD CELLS,[1],0 /100WBC
same,PLATELET COUNT,[1],1342 x10E3/uL
same,ALANINE AMINOTRANSFERASE,[1],49.67 u/L
same,ALBUMIN,[1],4.15 G/DL
same,ALKALINE PHOSPHATASE,[1],346.83 u/L
same,ASPARTATE AMINOTRANSFERASE,[1],108.17 u/L
same,BLOOD UREA NITROGEN,[1],17.33 mg/dL
same,CARBON DIOXIDE,[1],25 mmol/L
same,CHLORIDE,[1],100.83 MEQ/L
same,CHOLESTEROL,[1],66.83 mg/dL
same,CREATINE PHOSPHOKINASE,[1],788 u/L
same,CREATININE,[1],0.18 mg/dL
same,GLUCOSE,[1],151.67 mg/dL
same,LACTATE DEHYDROGENASE,[1],982.5 u/L
same,LIPASE,[1],10.33 u/L
same,PHOSPHORUS,[1],11.23 mg/dL
same,POTASSIUM,[1],6.37 MEQ/L
same,SODIUM,[1],141.02 MEQ/L
same,TOTAL BILIRUBIN,[1],0.18 mg/dL
same,TOTAL PROTEIN,[1],5.9 G/DL
same,URIC ACID,[1],1.8 mg/dL
same,ABSOLUTE BASOPHIL,[2],0 CELLS/uL
same,ABSOLUTE EOSINOPHIL,[2],69 CELLS/uL
same,ABSOLUTE LYMPHOCYTE,[2],13632.83 CELLS/uL
same,ABSOLUTE MONOCYTE,[2],139.83 CELLS/uL
same,ABSOLUTE SEGMENTED NEUTROPHIL,[2],1225 CELLS/uL
same,BASOPHIL,[2],0%
same,EOSINOPHIL,[2],0.33%
same,ERYTHROCYTE COUNT,[2],5.52 x10E6/uL
same,HEMATOCRIT,[2],33.98%
same,HEMOGLOBIN,[2],13.22 G/DL
same,LEUKOCYTE COUNT,[2],15.07 x10E3/uL
same,LYMPHOCYTE,[2],90.83%
same,MEAN CORPUSCULAR HEMOGLOBIN,[2],23.95 pg
same,MEAN CORPUSCULAR HEMOGLOBIN CONCENTRATION,[2],38.9 G/DL
same,MEAN CORPUSCULAR VOLUME,[2],61.53 fL
same,MONOCYTE,[2],0.83%
same,NEUTROPHIL,[2],8%
same,NUCLEATED RED BLOOD CELLS,[2],0 /100WBC
same,PLATELET COUNT,[2],1196 x10E3/uL
same,ALANINE AMINOTRANSFERASE,[2],49.17 u/L
same,ALBUMIN,[2],4.2 G/DL
same,ALKALINE PHOSPHATASE,[2],352.33 u/L
same,ASPARTATE AMINOTRANSFERASE,[2],89.67 u/L
same,BLOOD UREA NITROGEN,[2],18 mg/dL
same,CARBON DIOXIDE,[2],27.67 mmol/L
same,CHLORIDE,[2],101 MEQ/L
same,CHOLESTEROL,[2],72.83 mg/dL
same,CREATINE PHOSPHOKINASE,[2],417.5 u/L
same,CREATININE,[2],0.18 mg/dL
same,GLUCOSE,[2],150.5 mg/dL
same,LACTATE DEHYDROGENASE,[2],517.33 u/L
same,LIPASE,[2],9 u/L
same,PHOSPHORUS,[2],11.87 mg/dL
same,POTASSIUM,[2],6.57 MEQ/L
same,SODIUM,[2],143.62 MEQ/L
same,TOTAL BILIRUBIN,[2],0.2 mg/dL
same,TOTAL PROTEIN,[2],6.08 G/DL
same,URIC ACID,[2],1.45 mg/dL
same,ABSOLUTE BASOPHIL,[3],0 CELLS/uL
same,ABSOLUTE EOSINOPHIL,[3],0 CELLS/uL
same,ABSOLUTE LYMPHOCYTE,[3],12161.33 CELLS/uL
same,ABSOLUTE MONOCYTE,[3],182.33 CELLS/uL
same,ABSOLUTE SEGMENTED NEUTROPHIL,[3],1123 CELLS/uL
same,BASOPHIL,[3],0%
same,EOSINOPHIL,[3],0%
same,ERYTHROCYTE COUNT,[3],5.27 x10E6/uL
same,HEMATOCRIT,[3],34.17%
same,HEMOGLOBIN,[3],13.33 G/DL
same,LEUKOCYTE COUNT,[3],13.47 x10E3/uL
same,LYMPHOCYTE,[3],90.33%
same,MEAN CORPUSCULAR HEMOGLOBIN,[3],25.37 pg
same,MEAN CORPUSCULAR HEMOGLOBIN CONCENTRATION,[3],39.03 G/DL
same,MEAN CORPUSCULAR VOLUME,[3],64.97 fL
same,MONOCYTE,[3],1.33%
same,NEUTROPHIL,[3],8.33%
same,NUCLEATED RED BLOOD CELLS,[3],0 /100WBC
same,PLATELET COUNT,[3],1177 x10E3/uL
same,ALANINE AMINOTRANSFERASE,[3],54.33 u/L
same,ALBUMIN,[3],4.03 G/DL
same,ALKALINE PHOSPHATASE,[3],373.67 u/L
same,ASPARTATE AMINOTRANSFERASE,[3],85.33 u/L
same,BLOOD UREA NITROGEN,[3],15.33 mg/dL
same,CARBON DIOXIDE,[3],26.33 mmol/L
same,CHLORIDE,[3],101.67 MEQ/L
same,CHOLESTEROL,[3],64 mg/dL
same,CREATINE PHOSPHOKINASE,[3],394.67 u/L
same,CREATININE,[3],0.16 mg/dL
same,GLUCOSE,[3],125 mg/dL
same,LACTATE DEHYDROGENASE,[3],438.33 u/L
same,LIPASE,[3],10 u/L
same,PHOSPHORUS,[3],11.93 mg/dL
same,POTASSIUM,[3],7.01 MEQ/L
same,SODIUM,[3],142.53 MEQ/L
same,TOTAL BILIRUBIN,[3],0.2 mg/dL
same,TOTAL PROTEIN,[3],5.53 G/DL
same,URIC ACID,[3],1.57 mg/dL
